Experimental data taken from ChEMBL document CHEMBL1201862, “PubChem BioAssay data set” (2004).
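Five compound concentrations were applied to cells in 96-well plates for 48 hours; endpoints were derived by simple linear interpolation of the resulting dose-response curve. Here, GI50 denotes the concentration required for 50% inhibition of growth.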 Activity calls are given as the source filed them. Cut-off read from the data, not from the text of the source: active = GI50 up to about 1.1 µM and inactive = higher.

Legend:
Assay in all cases: inhibition of tumour cell growth, NCI panel, 48 h
TK-10 = tested on: TK-10
SK-MEL-2 = tested on: SK-MEL-2
IGROV-1 = tested on: IGROV-1
NCI-H23 = tested on: NCI-H23
ACHN = tested on: ACHN
SNB-19 = tested on: SNB-19
HCT-116 = tested on: HCT-116
HCC 2998 = tested on: HCC 2998
UO-31 = tested on: UO-31
UACC-62 = tested on: UACC-62
NCI-H522 = tested on: NCI-H522
RXF 393 = tested on: RXF 393
OVCAR-3 = tested on: OVCAR-3
SF-295 = tested on: SF-295
KM12 = tested on: KM12
OVCAR-5 = tested on: OVCAR-5
A549 = tested on: A549
SF-539 = tested on: SF-539
SK-MEL-5 = tested on: SK-MEL-5
CCRF-CEM = tested on: CCRF-CEM

Measured: GI50

CCN(CC(=O)O)C(=O)c1cccnc1
inactive: TK-10 > 100 µM | SK-MEL-2 > 100 µM | IGROV-1 > 100 µM | NCI-H23 > 100 µM | ACHN > 100 µM | SNB-19 > 100 µM | HCT-116 > 100 µM | HCC 2998 > 100 µM | UO-31 > 100 µM | UACC-62 > 100 µM | NCI-H522 > 100 µM | RXF 393 > 100 µM | OVCAR-3 > 100 µM | SF-295 > 100 µM | KM12 > 100 µM | OVCAR-5 > 100 µM | A549 > 100 µM

COc1ccc(/C(Cl)=C(\C=O)c2ccc(Cl)c(Cl)c2)cc1
inactive: TK-10 18 µM | SK-MEL-2 3.52 µM | IGROV-1 17 µM | NCI-H23 4.4 µM | ACHN 7.26 µM | SF-539 10.2 µM | SNB-19 16.2 µM | SK-MEL-5 13 µM | HCT-116 3.83 µM | UO-31 12.8 µM | CCRF-CEM 2.96 µM | UACC-62 8.2 µM | NCI-H522 2.51 µM | OVCAR-3 17.9 µM | SF-295 9.12 µM

CC(=O)NC1CC2Oc3ccc(C)cc3C(C)(O2)C1O (stereo not drawn)
inactive: TK-10 > 100 µM | SK-MEL-2 > 100 µM | IGROV-1 > 100 µM | NCI-H23 > 100 µM | ACHN > 100 µM | SF-539 > 100 µM | SNB-19 > 100 µM | HCT-116 > 100 µM | UO-31 > 100 µM | CCRF-CEM > 100 µM | UACC-62 > 100 µM | NCI-H522 > 100 µM | RXF 393 > 100 µM | OVCAR-3 > 100 µM | SF-295 > 100 µM | KM12 > 100 µM | A549 > 100 µM

COc1ccc2c(c1)C(=O)CC(C(N)=O)C2 (stereo not drawn)
inactive: TK-10 > 100 µM | SK-MEL-2 > 100 µM | IGROV-1 > 100 µM | NCI-H23 > 100 µM | ACHN > 100 µM | SNB-19 > 100 µM | SK-MEL-5 > 100 µM | HCT-116 > 100 µM | HCC 2998 > 100 µM | UO-31 > 100 µM | CCRF-CEM > 100 µM | UACC-62 > 100 µM | NCI-H522 > 100 µM | RXF 393 > 100 µM | OVCAR-3 > 100 µM | SF-295 > 100 µM | KM12 > 100 µM | OVCAR-5 > 100 µM | A549 > 100 µM

C=COC(=O)N1C2CCCC(Cl)(C(C)=O)C1CC2 (stereo not drawn)
inactive: TK-10 > 100 µM | SK-MEL-2 > 100 µM | IGROV-1 > 100 µM | NCI-H23 > 100 µM | ACHN > 100 µM | SNB-19 > 100 µM | SK-MEL-5 > 100 µM | HCT-116 > 100 µM | HCC 2998 > 100 µM | UO-31 > 100 µM | CCRF-CEM 13.4 µM | UACC-62 > 100 µM | NCI-H522 > 100 µM | OVCAR-3 > 100 µM | SF-295 > 100 µM | KM12 > 100 µM | OVCAR-5 > 100 µM | A549 > 100 µM

CC(=O)O/C=C(/C=C/OC(C)=O)C(C/C=C(\C)C#CC=C(C)C)OC(C)=O (stereo not drawn)
inactive: TK-10 > 100 µM | SK-MEL-2 > 100 µM | IGROV-1 30.4 µM | NCI-H23 38.6 µM | ACHN 61.1 µM | SF-539 22.8 µM | SNB-19 > 100 µM | SK-MEL-5 72.6 µM | HCT-116 18.3 µM | HCC 2998 > 100 µM | UO-31 58.2 µM | CCRF-CEM 26.1 µM | UACC-62 27.4 µM | NCI-H522 25.2 µM | OVCAR-3 24.2 µM | SF-295 61.5 µM | KM12 23.1 µM | OVCAR-5 > 100 µM | A549 > 100 µM

Nc1ccc(C2NC(=O)Cc3c2ccc2ccccc32)cc1 (stereo not drawn)
inactive: TK-10 > 100 µM | SK-MEL-2 > 100 µM | IGROV-1 > 100 µM | NCI-H23 > 100 µM | ACHN 58.1 µM | SF-539 90.6 µM | SNB-19 > 100 µM | SK-MEL-5 61.8 µM | HCT-116 81.1 µM | HCC 2998 69 µM | UO-31 32.1 µM | CCRF-CEM 80 µM | UACC-62 66.1 µM | NCI-H522 > 100 µM | OVCAR-3 26.1 µM | SF-295 45.5 µM | KM12 > 100 µM | OVCAR-5 > 100 µM | A549 33.2 µM

COC1CC(OC2CCC3(C)C(=CCC4C3C(OC(C)=O)C(OC(=O)CC(C)C)C3(C)C(C(C)=O)CCC43O)C2)OC(C)C1OC1CC(OC)C(OC2CC(OC)C(OC3OC(C)C(OC4OC(CO)C(O)C(O)C4O)C(OC)C3O)C(C)O2)C(C)O1 (stereo not drawn)
inactive: TK-10 > 75 µM | SK-MEL-2 > 75 µM | IGROV-1 > 75 µM | NCI-H23 > 75 µM | ACHN > 75 µM | SF-539 > 75 µM | SNB-19 > 75 µM | SK-MEL-5 > 75 µM | HCT-116 > 75 µM | HCC 2998 > 75 µM | UO-31 > 75 µM | CCRF-CEM > 7.5 µM | UACC-62 > 75 µM | NCI-H522 > 75 µM | OVCAR-3 > 75 µM | SF-295 > 75 µM | KM12 > 75 µM | OVCAR-5 > 75 µM | A549 > 75 µM

CCOC(=O)CNC(=O)C(C)NC(=O)C(NC(=O)CC(c1ncc[nH]1)c1ncc[nH]1)C(C)CC (stereo not drawn)
inactive: TK-10 > 100 µM | SK-MEL-2 > 100 µM | IGROV-1 > 100 µM | NCI-H23 > 100 µM | ACHN > 100 µM | SF-539 > 100 µM | SNB-19 > 100 µM | HCT-116 > 100 µM | HCC 2998 > 100 µM | UO-31 > 100 µM | CCRF-CEM > 100 µM | UACC-62 > 100 µM | NCI-H522 > 100 µM | OVCAR-3 > 100 µM | SF-295 > 100 µM | KM12 > 100 µM | OVCAR-5 > 100 µM | A549 > 100 µM

CSc1nc(NCc2ccccc2)c2cnn(COCCO)c2n1
inactive: TK-10 61.9 µM | SK-MEL-2 43.7 µM | IGROV-1 40.7 µM | NCI-H23 24.5 µM | ACHN 31.9 µM | SF-539 > 100 µM | SK-MEL-5 41.5 µM | HCT-116 62.8 µM | UO-31 35.9 µM | CCRF-CEM 51.6 µM | UACC-62 43.9 µM | NCI-H522 28.6 µM | RXF 393 29 µM | OVCAR-3 57.8 µM | SF-295 35.5 µM | KM12 80 µM | OVCAR-5 > 100 µM | A549 43.9 µM

CN(NC(=O)/C(=C/c1ccc(Cl)cc1)NC(=O)c1ccccc1)c1cn[nH]c(=O)c1Cl
inactive: TK-10 > 100 µM | SK-MEL-2 > 100 µM | IGROV-1 41.4 µM | NCI-H23 > 100 µM | ACHN > 100 µM | SF-539 > 100 µM | SNB-19 > 100 µM | SK-MEL-5 73.5 µM | HCT-116 > 100 µM | UO-31 > 100 µM | CCRF-CEM 30 µM | UACC-62 97.1 µM | NCI-H522 17.5 µM | RXF 393 > 100 µM | OVCAR-3 87.1 µM | SF-295 46.6 µM | KM12 55.1 µM | OVCAR-5 > 100 µM | A549 > 100 µM

CC(C)C(=O)OCN(C)c1nc(N(C)COC(=O)C(C)C)nc(N(C)COC(=O)C(C)C)n1
inactive: TK-10 85.7 µM | SK-MEL-2 23.2 µM | NCI-H23 20.7 µM | ACHN 32 µM | SF-539 23.2 µM | SNB-19 42.1 µM | SK-MEL-5 15.1 µM | HCT-116 32.1 µM | UO-31 22.2 µM | CCRF-CEM 22.3 µM | NCI-H522 18.3 µM | OVCAR-3 36.6 µM | SF-295 27.3 µM | KM12 24.2 µM | OVCAR-5 27.7 µM | A549 43.1 µM

O=CN1CCN(c2ccc3ccc(O)nc3n2)CC1
inactive: TK-10 > 100 µM | SK-MEL-2 > 100 µM | IGROV-1 > 100 µM | NCI-H23 > 100 µM | ACHN > 100 µM | SF-539 > 100 µM | SNB-19 > 100 µM | HCT-116 > 100 µM | HCC 2998 > 100 µM | UO-31 > 100 µM | CCRF-CEM > 100 µM | UACC-62 > 100 µM | NCI-H522 51.8 µM | OVCAR-3 > 100 µM | SF-295 > 100 µM | KM12 > 100 µM | OVCAR-5 > 100 µM | A549 > 100 µM

COc1ccc2c(c1)CCCN2CCCCCCCCCCN(CCC(C)C)CCC(C)C
inactive: TK-10 16.4 µM | SK-MEL-2 9.4 µM | IGROV-1 12.2 µM | NCI-H23 3.25 µM | ACHN 10.9 µM | SF-539 3.39 µM | SNB-19 13.9 µM | SK-MEL-5 6.46 µM | HCC 2998 6.98 µM | UO-31 3.11 µM | CCRF-CEM 7.29 µM | UACC-62 12.2 µM | NCI-H522 2.2 µM | OVCAR-3 4.79 µM | SF-295 14.1 µM | KM12 4.55 µM | OVCAR-5 14.9 µM | A549 11.7 µM

O=C(O)CSC(CC1(c2ccc(Cl)cc2)NC(=O)CS1)c1ccc(Cl)cc1 (stereo not drawn)
inactive: TK-10 > 100 µM | SK-MEL-2 83.6 µM | IGROV-1 > 100 µM | NCI-H23 > 100 µM | ACHN > 100 µM | SF-539 > 100 µM | SNB-19 > 100 µM | SK-MEL-5 > 100 µM | HCT-116 > 100 µM | UO-31 > 100 µM | CCRF-CEM 69.3 µM | UACC-62 85.1 µM | NCI-H522 46.2 µM | OVCAR-3 45.6 µM | SF-295 > 100 µM | KM12 > 100 µM | OVCAR-5 > 100 µM | A549 > 100 µM
